Experimental data from PubChem BioAssay AID328 (DTP/NCI, 2004).
Where “and” joins values, the source holds several entries; their conditions need not be identical. Identical values can stand only once. Toxic doses and inconclusive results are not listed.

Test system: BDF1 mice, P388 leukemia ip, median survival T/C
Assay: NCI In Vivo Anticancer Drug Screen. Data for tumor model P388 Leukemia (intraperitoneal) in B6D2F1 (BDF1) mice
Conditions: endpoint: median survival time, higher = longer survival
Summary of the method: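 Mice carrying the transplantable tumour receive compound or vehicle. Survival is followed in each arm, and the treated measure is divided by the vehicle measure.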

SMILES: COC(=O)C[C@](O)(CCCC(C)(C)O)C(=O)O[C@@H]1C(OC)=C[C@]23CCCN2CCc2cc4c(cc2[C@H]13)OCO4
- T/C (dose: 0.06 mg/kg/injection, schedule: Q01DX010 (ip), vehicle: saline): 154 % of control
- T/C (dose: 0.13 mg/kg/injection, schedule: Q01DX010 (ip), vehicle: saline): 172 % of control
- T/C (dose: 0.25 mg/kg/injection, schedule: Q01DX009 (ip), vehicle: acid diluted with saline): 180 % of control
- T/C (dose: 0.25 mg/kg/injection, schedule: Q01DX009 (ip), vehicle: water): 233 % of control and 244 % of control
- T/C (dose: 0.25 mg/kg/injection, schedule: Q01DX010 (ip), vehicle: saline): 181 % of control
- T/C (dose: 0.25 mg/kg/injection, schedule: Q03HX016 (ip), vehicle: acid diluted with saline): 160 % of control
- T/C (dose: 0.5 mg/kg/injection, schedule: Q01DX006 (iv), vehicle: acid diluted with saline): 115 % of control
- T/C (dose: 0.5 mg/kg/injection, schedule: Q01DX009 (ip), vehicle: acid diluted with saline): 190 % of control
- T/C (dose: 0.5 mg/kg/injection, schedule: Q01DX009 (ip), vehicle: saline): 240 % of control and 100 % of control
- T/C (dose: 0.5 mg/kg/injection, schedule: Q01DX009 (ip), vehicle: water): 272 % of control and 300 % of control
- T/C (dose: 0.5 mg/kg/injection, schedule: Q01DX009 (oral), vehicle: acid diluted with saline): 115 % of control
- T/C (dose: 0.5 mg/kg/injection, schedule: Q01DX009 (oral), vehicle: saline): 155 % of control
- T/C (dose: 0.5 mg/kg/injection, schedule: Q01DX009 (sc), vehicle: saline): 105 % of control
- T/C (dose: 0.5 mg/kg/injection, schedule: Q01DX010 (ip), vehicle: saline): 245 % of control and 215 % of control
- T/C (dose: 0.5 mg/kg/injection, schedule: Q03HX016 (ip), vehicle: acid diluted with saline): 180 % of control
- T/C (dose: 1.0 mg/kg/injection, schedule: Q01DX006 (iv), vehicle: acid diluted with saline): 160 % of control
- T/C (dose: 1.0 mg/kg/injection, schedule: Q01DX009 (ip), vehicle: acid diluted with saline): 225 % of control and 218 % of control
- T/C (dose: 1.0 mg/kg/injection, schedule: Q01DX009 (ip), vehicle: saline): 245 % of control and 100 % of control
- T/C (dose: 1.0 mg/kg/injection, schedule: Q01DX009 (ip), vehicle: water): 327 % of control and 338 % of control
- T/C (dose: 1.0 mg/kg/injection, schedule: Q01DX009 (oral), vehicle: acid diluted with saline): 115 % of control
- T/C (dose: 1.0 mg/kg/injection, schedule: Q01DX009 (oral), vehicle: saline): 240 % of control
- T/C (dose: 1.0 mg/kg/injection, schedule: Q01DX009 (sc), vehicle: acid diluted with saline): 170 % of control
- T/C (dose: 1.0 mg/kg/injection, schedule: Q01DX010 (ip), vehicle: saline): 120 % of control
- T/C (dose: 1.0 mg/kg/injection, schedule: Q03HX008 (ip), vehicle: acid diluted with saline): 150 % of control
- T/C (dose: 1.0 mg/kg/injection, schedule: Q03HX016 (ip), vehicle: acid diluted with saline): 100 % of control
- T/C (dose: 2.0 mg/kg/injection, schedule: Q01DX001 (ip), vehicle: acid diluted with saline): 120 % of control
- T/C (dose: 2.0 mg/kg/injection, schedule: Q01DX001 (iv), vehicle: acid diluted with saline): 110 % of control
- T/C (dose: 2.0 mg/kg/injection, schedule: Q01DX001 (oral), vehicle: acid diluted with saline): 110 % of control
- T/C (dose: 2.0 mg/kg/injection, schedule: Q01DX001 (sc), vehicle: acid diluted with saline): 110 % of control
- T/C (dose: 2.0 mg/kg/injection, schedule: Q01DX006 (iv), vehicle: acid diluted with saline): 200 % of control
- T/C (dose: 2.0 mg/kg/injection, schedule: Q01DX009 (ip), vehicle: acid diluted with saline): 240 % of control and 254 % of control
- T/C (dose: 2.0 mg/kg/injection, schedule: Q01DX009 (ip), vehicle: water): 88 % of control
- T/C (dose: 2.0 mg/kg/injection, schedule: Q01DX009 (sc), vehicle: acid diluted with saline): 235 % of control
- T/C (dose: 2.0 mg/kg/injection, schedule: Q01DX009 (sc), vehicle: saline): 205 % of control
- T/C (dose: 2.0 mg/kg/injection, schedule: Q04DX003 (ip), vehicle: acid diluted with saline): 155 % of control and 168 % of control and 170 % of control
- T/C (dose: 2.0 mg/kg/injection, schedule: Q04DX003 (ip), vehicle: saline): 173 % of control
- T/C (dose: 3.33 mg/kg/injection, schedule: Q04DX003 (ip), vehicle: acid diluted with saline): 112 % of control
- T/C (dose: 4.0 mg/kg/injection, schedule: Q01DX001 (ip), vehicle: acid diluted with saline): 115 % of control
- T/C (dose: 4.0 mg/kg/injection, schedule: Q01DX001 (iv), vehicle: acid diluted with saline): 110 % of control
- T/C (dose: 4.0 mg/kg/injection, schedule: Q01DX001 (oral), vehicle: acid diluted with saline): 110 % of control
- T/C (dose: 4.0 mg/kg/injection, schedule: Q01DX001 (sc), vehicle: acid diluted with saline): 120 % of control
- T/C (dose: 4.0 mg/kg/injection, schedule: Q01DX006 (iv), vehicle: acid diluted with saline): 120 % of control
- T/C (dose: 4.0 mg/kg/injection, schedule: Q01DX009 (ip), vehicle: acid diluted with saline): 190 % of control
- T/C (dose: 4.0 mg/kg/injection, schedule: Q01DX009 (ip), vehicle: saline): 100 % of control
- T/C (dose: 4.0 mg/kg/injection, schedule: Q01DX009 (sc), vehicle: saline): 115 % of control
- T/C (dose: 4.0 mg/kg/injection, schedule: Q04DX003 (ip), vehicle: acid diluted with saline): 110 % of control
- T/C (dose: 8.0 mg/kg/injection, schedule: Q01DX009 (ip), vehicle: saline): 104 % of control
- T/C (dose: 62.5 micrograms/kg/injection, schedule: Q01DX009 (ip), vehicle: saline): 154 % of control
- T/C (dose: 125.0 micrograms/kg/injection, schedule: Q01DX009 (ip), vehicle: saline): 154 % of control
- T/C (dose: 125.0 micrograms/kg/injection, schedule: Q03HX024 (ip), vehicle: acid diluted with saline): 170 % of control
- T/C (dose: 250.0 micrograms/kg/injection, schedule: Q01DX009 (ip), vehicle: saline): 163 % of control
- T/C (dose: 250.0 micrograms/kg/injection, schedule: Q03HX024 (ip), vehicle: acid diluted with saline): 190 % of control
- T/C (dose: 500.0 micrograms/kg/injection, schedule: Q01DX009 (ip), vehicle: saline): 190 % of control
- T/C (dose: 500.0 micrograms/kg/injection, schedule: Q03HX024 (ip), vehicle: acid diluted with saline): 215 % of control
- T/C (dose: 1000.0 micrograms/kg/injection, schedule: Q01DX009 (ip), vehicle: saline): 213 % of control
